Experimental data taken from patent publication US8501713B2, “Drug combinations for the treatment of duchenne muscular dystrophy” (Summit Corporation PLC, priority 2007, dated 2013).

tested on: Utrophin A promoter linked to a luciferase reporter gene; experiment: Luciferase reporter assay (murine H2K cells); format: cell-based; details: luciferase reporter assay in murine H2K cells; classified relative to control
Outline: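 Immortalized mdx mouse H2K myoblasts stably carrying a ~5 kb utrophin A promoter–luciferase construct, kept at 33° C, 10% CO2. After 24 hrs plating, compound added at 10 μM final for 48 hrs; luciferase light output read after in-situ lysis.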

| Structure (SMILES) | Activity |
| --- | --- |
| Oc1ccccc1-c1nc2ccccc2s1 [Example 483] | + (Up to 200% relative to control) |
| Nc1ccc(-c2nc3ccccc3o2)c(O)c1 [Example 484] | ++ (Between 201% and 300% relative to control) |
| Cc1cc2nc(-c3ccc(N)cc3)oc2cc1C [Example 485] | ++ (Between 201% and 300% relative to control) |
| CN(C)c1ccc(-c2nc3ccccc3o2)cc1 [Example 486] | + (Up to 200% relative to control) |
| Nc1ccc2oc(-c3ccc(Cl)cc3)nc2c1 [Example 488] | ++ (Between 201% and 300% relative to control) |
| Nc1ccc2oc(-c3cccc(Cl)c3)nc2c1 [Example 489] | ++ (Between 201% and 300% relative to control) |
| Cn1c(-c2ccc(N)cc2)nc2cc(N)ccc21 [Example 490] | + (Up to 200% relative to control) |
| CN(C)c1ccc(-c2nc3cc(N)ccc3o2)cc1 [Example 491] | ++ (Between 201% and 300% relative to control) |
| O=[N+]([O-])c1ccc2oc(-c3ccccc3)nc2c1 [Example 492] | ++ (Between 201% and 300% relative to control) |
| O=C(Cc1cccs1)Nc1ccc(-c2nc3ccccc3[nH]2)cc1 [Example 493] | + (Up to 200% relative to control) |
| COc1ccc(C(=O)Nc2ccc(-c3nc4ccccc4[nH]3)cc2)cc1OC [Example 494] | + (Up to 200% relative to control) |
| Clc1ccc(OCc2nc3ccccc3[nH]2)cc1 [Example 495] | + (Up to 200% relative to control) |
| Nc1ccc2oc(-c3ccc(O)cc3)nc2c1 [Example 496] | ++ (Between 201% and 300% relative to control) |
| O=C(Nc1ccc(-c2nc3ccccc3[nH]2)cc1)c1ccccc1 [Example 497] | + (Up to 200% relative to control) |
| CN(C)c1ccc(-c2nc3ccccc3[nH]2)cc1 [Example 498] | + (Up to 200% relative to control) |
| COCc1nc2ccccc2[nH]1 [Example 499] | + (Up to 200% relative to control) |
| O=C(Nc1ccccc1-c1nc2ccccc2[nH]1)c1ccc(Cl)cc1Cl [Example 500] | + (Up to 200% relative to control) |
| O=C(Cc1ccccc1)Nc1ccc(-c2nc3ccccc3[nH]2)cc1 [Example 501] | + (Up to 200% relative to control) |
| CCc1ccc2oc(-c3cccc(N)c3)nc2c1 [Example 502] | ++ (Between 201% and 300% relative to control) |

| Structure (SMILES) | Activity |
| --- | --- |
| CC(=O)Nc1cccc(-c2nc3ccccc3[nH]2)c1 [Example 503] | + (Up to 200% relative to control) |
| O=C(Nc1cccc(-c2nc3ccccc3[nH]2)c1)c1cccs1 [Example 504] | + (Up to 200% relative to control) |
| Cc1ccc2oc(-c3ccc([N+](=O)[O-])cc3)nc2c1 [Example 505] | ++ (Between 201% and 300% relative to control) |
| Cc1ccc2nc(-c3ccc(N)cc3)oc2c1 [Example 506] | + (Up to 200% relative to control) |
| Fc1ccccc1-c1nc2ccccc2[nH]1 [Example 507] | ++ (Between 201% and 300% relative to control) |
| O=[N+]([O-])c1ccc2[nH]c(-c3ccco3)nc2c1 [Example 508] | + (Up to 200% relative to control) |
| CN(C)c1ccc(-c2nc3cc([N+](=O)[O-])ccc3[nH]2)cc1 [Example 509] | ++ (Between 201% and 300% relative to control) |
| Cl.Cl.Nc1ccc2[nH]c(-c3ccco3)nc2c1 [Example 510] | + (Up to 200% relative to control) |
| O=C(Nc1ccccc1-c1nc2ccccc2[nH]1)c1ccc(S(=O)(=O)N2CCCC2)cc1 [Example 511] | + (Up to 200% relative to control) |
| COc1ccc(-c2nc3cc(N)ccc3o2)cc1 [Example 512] | + (Up to 200% relative to control) |
| CC(=O)Nc1cccc(-c2nc3ccccc3s2)c1 [Example 513] | + (Up to 200% relative to control) |
| Clc1cccc(-c2nc3ccccc3[nH]2)c1 [Example 514] | + (Up to 200% relative to control) |
| COc1ccc(-c2nc3cc(N)ccc3o2)cc1OC [Example 515] | ++ (Between 201% and 300% relative to control) |
| O=S(=O)(c1ccc(-c2nc3ccccc3s2)cc1)N1CCCCC1 [Example 516] | ++ (Between 201% and 300% relative to control) |
| CC(=O)Nc1ccc2oc(-c3ccc(Cl)cc3Cl)nc2c1 [Example 517] | ++ (Between 201% and 300% relative to control) |
| Nc1ccc(-c2nc3cc(Cl)cc(Cl)c3o2)cc1 [Example 518] | ++ (Between 201% and 300% relative to control) |
| COc1ccc(-c2nc3cc(NC(C)=O)ccc3o2)cc1Cl [Example 519] | ++ (Between 201% and 300% relative to control) |
| COc1ccc(-c2nc3cc([N+](=O)[O-])ccc3[nH]2)cc1OC [Example 520] | + (Up to 200% relative to control) |
| COc1ccc(-c2nc3ccccc3n2C)cc1OC [Example 521] | + (Up to 200% relative to control) |

| Structure (SMILES) | Activity |
| --- | --- |
| COc1ccccc1-c1nc2ccccc2s1 [Example 522] | + (Up to 200% relative to control) |
| O=[N+]([O-])c1cc(-c2nc3ccccc3s2)ccc1Cl [Example 523] | + (Up to 200% relative to control) |
| O=[N+]([O-])c1ccc(Cl)c(-c2nc3ccccc3s2)c1 [Example 524] | + (Up to 200% relative to control) |
| O=[N+]([O-])c1ccc2oc(-c3ccc(F)cc3)nc2c1 [Example 525] | + (Up to 200% relative to control) |
| Cc1ccc(-c2nc3cc(N)ccc3o2)cc1Cl [Example 526] | ++ (Between 201% and 300% relative to control) |
| Cc1ccc(-c2nc3cc(N)ccc3o2)c(Cl)c1 [Example 527] | ++ (Between 201% and 300% relative to control) |
| COc1ccc(OCc2nc3ccccc3n2C)cc1 [Example 528] | ++ (Between 201% and 300% relative to control) |
| CC(=O)Nc1ccc(-c2nc3cc(C)cc(C)c3o2)cc1 [Example 529] | ++ (Between 201% and 300% relative to control) |
| c1ccc(-c2nnc(SCc3nc4ccccc4[nH]3)o2)cc1 [Example 530] | + (Up to 200% relative to control) |
| Cc1ccc(OCc2nc3ccccc3[nH]2)cc1 [Example 531] | ++ (Between 201% and 300% relative to control) |
| Cc1ccc2[nH]c(-c3ccc(N)cc3)nc2c1 [Example 532] | + (Up to 200% relative to control) |
| Cc1cccc(-c2nc3cc([N+](=O)[O-])ccc3o2)c1 [Example 533] | ++ (Between 201% and 300% relative to control) |
| CC(=O)Nc1ccc2[nH]c(-c3ccco3)nc2c1 [Example 534] | + (Up to 200% relative to control) |
| COc1ccc(-c2nc3cc(N)ccc3[nH]2)cc1 [Example 535] | ++ (Between 201% and 300% relative to control) |
| Cc1ccc(S(=O)(=O)Nc2ccc3[nH]c(-c4ccco4)nc3c2)cc1 [Example 536] | + (Up to 200% relative to control) |
| COc1ccc(-c2nc3cc([N+](=O)[O-])ccc3o2)cc1OC [Example 537] | + (Up to 200% relative to control) |
| Cc1ccc2nc(-c3cccc(NC(=O)c4ccco4)c3)[nH]c2c1 [Example 538] | + (Up to 200% relative to control) |
| Cc1cc(-c2nc3cc(Cl)ccc3o2)ccc1[N+](=O)[O-] [Example 539] | + (Up to 200% relative to control) |
